Measured values as given in patent publication US20050054708A1, “Combinations of drugs for the treatment of neoplasms” (priority 2003, published 2005).
Like-named read-outs stand apart in the source and are kept apart here.

Columns and labels:
A549 cells = assay: Anti-proliferation assay (Alamar Blue metabolism); conditions: Homo sapiens;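 further: 384-well plates, 72–80 h exposure at 37 °C, Alamar Blue fluorescence (ex 530 nm) read 3.5–5 h after dye addition, inhibition relative to mean of vehicle-only wells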
Experimental: Human non-small cells lung carcinoma cells A549 (ATCC# CCL-185), were grown at 37±0.5° C. and 5% CO2 in DMEM supplemented with 10% FBS, 2 mM glutamine, 1% penicillin, and 1% streptomycin.
Stock solutions (1000×) of each compound were prepared in DMSO and stored at −20° C. Master stock plates of 2-fold or 4-fold serial dilutions of individual compounds were prepared in 384-well plates. Combination matrices of test compounds were generated from these master stock plates by dilution into growth media described above. […] The combination matrices were used immediately and discarded.
The anti-proliferation assays were performed in 384-well plates. 6.6 μL of 10× stock solutions from the combination matrices were added to 40 μL of culture media in assay wells. The tumor cells were liberated from the culture flask using a solution of 0.25% trypsin. Cells were diluted in culture media such that 3000 or 6000 cells were delivered in 20 μL of media into each assay well. Assay plates were incubated for 72-80 hours at 37° C. ±0.5° C. with 5% CO2. Twenty microliters of 20% Alamar Blue warmed to 37° C. ±0.5° C. was added to each assay well following the incubation period. Alamar Blue metabolism was quantified by the amount of fluorescence intensity 3.5-5.0 hours after addition. Quantification, using an LJL Analyst AD reader (LJL Biosystems), was taken in the middle of the well with high attenuation, a 100 msec read time, an excitation filter at 530 nm, and an emission filter at 575 nm. For some experiments, quantification was performed using a Wallac Victor^2 reader. Measurements were taken at the top of the well with stabilized energy lamp control; a 100 msec read time, an excitation filter at 530 nm, and an emission filter at 590 nm.
The percent inhibition (% I) for each well was calculated using the following formula: % I=[(avg. untreated wells−treated well)/(avg. untreated wells)]×100 The average untreated well value (avg. untreated wells) is the arithmetic mean of 40 wells from the same assay plate treated with vehicle alone.
Inhibition of proliferation was measured by anti-proliferation assay as described below after incubation with the test compound(s) for 72 hours.

endo-exonuclease = conditions: PCT Publication No. WO 01/35935; cited from earlier work
[1] = mice, single intraperitoneal injection at 10 mg/kg; cited from earlier work
[2] = test system: phosphatases of regenerating liver (PRL-1, PRL-2, or PRL-3); conditions: cited from earlier work
[3] = target: T1, protein tyrosine phosphatase 1B (PTP1 B) (Homo sapiens, UniProt P18031); conditions: cited from earlier work
T1 sequence (P18031 1-435): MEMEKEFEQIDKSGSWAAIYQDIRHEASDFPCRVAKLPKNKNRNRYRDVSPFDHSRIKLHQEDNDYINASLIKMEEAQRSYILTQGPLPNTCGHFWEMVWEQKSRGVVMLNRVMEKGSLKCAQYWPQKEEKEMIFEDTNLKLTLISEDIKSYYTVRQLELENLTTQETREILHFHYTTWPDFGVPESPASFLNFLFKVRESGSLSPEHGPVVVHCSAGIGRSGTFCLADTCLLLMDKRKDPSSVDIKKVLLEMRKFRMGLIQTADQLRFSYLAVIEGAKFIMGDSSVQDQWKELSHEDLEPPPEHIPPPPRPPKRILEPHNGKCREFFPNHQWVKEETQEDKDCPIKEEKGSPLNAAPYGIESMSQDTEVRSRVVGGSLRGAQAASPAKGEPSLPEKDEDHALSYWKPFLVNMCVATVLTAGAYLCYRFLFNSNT

SMILES: N=C(N)c1ccc(OCCCCCOc2ccc(C(=N)N)cc2)cc1 [Pentamidine, pentamidine]
- inhibition at 0.013 µM (A549 cells; A549, read-out: Percent inhibition of Alamar Blue Metabolism, pentamidine 0.013 μM alone (Table 3)): -28.2%
- inhibition at 0.013 µM (A549 cells; A549, read-out: Percent inhibition of Alamar Blue Metabolism, pentamidine 0.013 μM alone (Table 4)): 8.4%
- inhibition at 0.013 µM (A549 cells; A549, read-out: Percent inhibition of Alamar Blue Metabolism, pentamidine 0.013 μM alone (Table 5)): 30.2%
- inhibition at 0.013 µM (A549 cells; A549, read-out: Percent inhibition of Alamar Blue Metabolism, pentamidine 0.013 μM alone (Table 6)): -6.7%
- inhibition at 0.013 µM (A549 cells; A549, read-out: Percent inhibition of Alamar Blue Metabolism, pentamidine 0.013 μM alone (Table 7)): -4.4%
- inhibition at 0.026 µM (A549 cells; A549, read-out: Percent inhibition of Alamar Blue Metabolism, pentamidine 0.026 μM alone (Table 3)): -25.3%
- inhibition at 0.026 µM (A549 cells; A549, read-out: Percent inhibition of Alamar Blue Metabolism, pentamidine 0.026 μM alone (Table 4)): -6.8%
- inhibition at 0.026 µM (A549 cells; A549, read-out: Percent inhibition of Alamar Blue Metabolism, pentamidine 0.026 μM alone (Table 5)): 28.4%
- inhibition at 0.026 µM (A549 cells; A549, read-out: Percent inhibition of Alamar Blue Metabolism, pentamidine 0.026 μM alone (Table 6)): 13.1%
- inhibition at 0.026 µM (A549 cells; A549, read-out: Percent inhibition of Alamar Blue Metabolism, pentamidine 0.026 μM alone (Table 7)): -3%
- inhibition at 0.05 µM (A549 cells; A549, read-out: Percent inhibition of Alamar Blue Metabolism, pentamidine 0.050 μM alone (Table 8)): 2.4%
- inhibition at 0.053 µM (A549 cells; A549, read-out: Percent inhibition of Alamar Blue Metabolism, pentamidine 0.053 μM alone (Table 3)): -12.4%
- inhibition at 0.053 µM (A549 cells; A549, read-out: Percent inhibition of Alamar Blue Metabolism, pentamidine 0.053 μM alone (Table 4)): -8.8%
- inhibition at 0.053 µM (A549 cells; A549, read-out: Percent inhibition of Alamar Blue Metabolism, pentamidine 0.053 μM alone (Table 5)): 30.4%
- inhibition at 0.053 µM (A549 cells; A549, read-out: Percent inhibition of Alamar Blue Metabolism, pentamidine 0.053 μM alone (Table 6)): 1.1%
- inhibition at 0.053 µM (A549 cells; A549, read-out: Percent inhibition of Alamar Blue Metabolism, pentamidine 0.053 μM alone (Table 7)): -1.9%
- inhibition at 0.1 µM (A549 cells; A549, read-out: Percent inhibition of Alamar Blue Metabolism, pentamidine 0.100 μM alone (Table 8)): -3.1%
- inhibition at 0.105 µM (A549 cells; A549, read-out: Percent inhibition of Alamar Blue Metabolism, pentamidine 0.105 μM alone (Table 3)): 4.7%
- inhibition at 0.105 µM (A549 cells; A549, read-out: Percent inhibition of Alamar Blue Metabolism, pentamidine 0.105 μM alone (Table 4)): -3.7%
- inhibition at 0.105 µM (A549 cells; A549, read-out: Percent inhibition of Alamar Blue Metabolism, pentamidine 0.105 μM alone (Table 5)): 33.7%
- inhibition at 0.105 µM (A549 cells; A549, read-out: Percent inhibition of Alamar Blue Metabolism, pentamidine 0.105 μM alone (Table 6)): -3.7%
- inhibition at 0.105 µM (A549 cells; A549, read-out: Percent inhibition of Alamar Blue Metabolism, pentamidine 0.105 μM alone (Table 7)): 9.2%
- inhibition at 0.2 µM (A549 cells; A549, read-out: Percent inhibition of Alamar Blue Metabolism, pentamidine 0.200 μM alone (Table 8)): -0.7%
- inhibition at 0.35 µM (A549 cells; A549, read-out: Percent inhibition of Alamar Blue Metabolism, pentamidine 0.350 μM alone (Table 8)): -1.5%
- inhibition at 0.421 µM (A549 cells; A549, read-out: Percent inhibition of Alamar Blue Metabolism, pentamidine 0.421 μM alone (Table 4)): 50%
- inhibition at 0.421 µM (A549 cells; A549, read-out: Percent inhibition of Alamar Blue Metabolism, pentamidine 0.421 μM alone (Table 6)): 32.6%
- inhibition at 0.421 µM (A549 cells; A549, read-out: Percent inhibition of Alamar Blue Metabolism, pentamidine 0.421 μM alone (Table 7)): 10.5%
- inhibition at 0.422 µM (A549 cells; A549, read-out: Percent inhibition of Alamar Blue Metabolism, pentamidine 0.422 μM alone (Table 3)): 52.1%
- inhibition at 0.422 µM (A549 cells; A549, read-out: Percent inhibition of Alamar Blue Metabolism, pentamidine 0.422 μM alone (Table 5)): 68.2%
- inhibition at 0.5 µM (A549 cells; A549, read-out: Percent inhibition of Alamar Blue Metabolism, pentamidine 0.500 μM alone (Table 8)): 15.8%
- inhibition at 0.7 µM (A549 cells; A549, read-out: Percent inhibition of Alamar Blue Metabolism, pentamidine 0.700 μM alone (Table 8)): 21.7%
- inhibition at 1 µM (A549 cells; A549, read-out: Percent inhibition of Alamar Blue Metabolism, pentamidine 1.000 μM alone (Table 8)): 48.9%
- inhibition at 1.3 µM (A549 cells; A549, read-out: Percent inhibition of Alamar Blue Metabolism, pentamidine 1.300 μM alone (Table 8)): 64.7%
- inhibition at 1.685 µM (A549 cells; A549, read-out: Percent inhibition of Alamar Blue Metabolism, pentamidine 1.685 μM alone (Table 4)): 79.1%
- inhibition at 1.685 µM (A549 cells; A549, read-out: Percent inhibition of Alamar Blue Metabolism, pentamidine 1.685 μM alone (Table 6)): 71.9%
- inhibition at 1.685 µM (A549 cells; A549, read-out: Percent inhibition of Alamar Blue Metabolism, pentamidine 1.685 μM alone (Table 7)): 62.9%
- inhibition at 1.687 µM (A549 cells; A549, read-out: Percent inhibition of Alamar Blue Metabolism, pentamidine 1.687 μM alone (Table 3)): 78.2%
- inhibition at 1.687 µM (A549 cells; A549, read-out: Percent inhibition of Alamar Blue Metabolism, pentamidine 1.687 μM alone (Table 5)): 83.1%
- inhibition at 1.7 µM (A549 cells; A549, read-out: Percent inhibition of Alamar Blue Metabolism, pentamidine 1.700 μM alone (Table 8)): 70.1%
- inhibition at 3.37 µM (A549 cells; A549, read-out: Percent inhibition of Alamar Blue Metabolism, pentamidine 3.370 μM alone (Table 4)): 79.4%
- inhibition at 3.37 µM (A549 cells; A549, read-out: Percent inhibition of Alamar Blue Metabolism, pentamidine 3.370 μM alone (Table 6)): 80.6%
- inhibition at 3.37 µM (A549 cells; A549, read-out: Percent inhibition of Alamar Blue Metabolism, pentamidine 3.370 μM alone (Table 7)): 73.7%
- inhibition at 3.374 µM (A549 cells; A549, read-out: Percent inhibition of Alamar Blue Metabolism, pentamidine 3.374 μM alone (Table 3)): 85.4%
- inhibition at 3.374 µM (A549 cells; A549, read-out: Percent inhibition of Alamar Blue Metabolism, pentamidine 3.374 μM alone (Table 5)): 87.5%
- inhibition of endo-exonuclease activity (endo-exonuclease): inhibit the activity of endo-exonuclease
- tissue distribution [1]: The concentration in the kidneys was the highest, followed by that in the liver
- inhibition of phosphatases of regenerating liver [2]: potent inhibitor
- inhibition of protein tyrosine phosphatase 1B [3]: effective inhibitor
